Experimental data published in publication PMC7408072 (Pharmaceutics, 2020).
Peptide text beside a SMILES is read from it. * marks the point of attachment. 5TAMRA = CN(C)c1ccc2c(c1)Oc1cc(N(C)C)ccc1C21OC(=O)c2cc(C(=O)*)ccc21

What was measured:
[1] = test system: bovine BCEC monolayers co-cultured with rat astrocytes; assay: Transport and cell uptake of 3-5 kDa FITC-dextran in the presence of peptide (bovine model); type: cell-based; conditions: 1 mg/mL FITC-dextran with 100 µM peptide, luminal, 3 h, abluminal FITC fluorescence; N = 3, n = 3
Method: Transport across bovine or mouse BCEC monolayers co-cultured with rat astrocytes was carried out over 3 h at 37 °C with horizontal shaking (90 rpm). TEER was measured at room temperature using an Endohm 12 cup (World Precision Instruments, Sarasota, FL, USA) connected to a Millicell-ERS device (Millipore, Bedford, MA, USA). TEER was measured before application of the peptides and after each experiment. The bovine model had initial TEER values ranging from 771 to 1332 Ω·cm^2, whereas the mouse model had initial TEER values ranging from 136 to 217 Ω·cm^2.
FITC fluorescence was measured using a NovoStar fluorescence plate reader (BMG Labtech, Offenburg, Germany) with excitation/emission set to 494/518 nm. […] The filters were washed with PBS thrice for 5 min, mounted on glass slides under coverslips using Immu-Mount™ mounting media (Thermo Fischer Scientific, Bedford, MA, USA), and imaged using single wavelength excitation on a Leica SP2 laser-scanning confocal microscope (Leica Microsystems, Wetzlar, Germany).

[2] = test system: blood–brain barrier; assay: In vivo two-photon imaging of BBB permeation; conditions: 3 nmol peptide/g body weight via femoral artery, 1 h, mean ± SEM, N = 5; for BBB permeation: AUC of change in TAMRA fluorescence in the brain parenchyma: anesthetized C57BL/6 mice, two-photon imaging; for clearance: AUC of decreased fluorescence in the blood stream: blood vessel ROIs
Method: Animals and operational procedure: We used 12–14-week-old C57BL/6 mice (24–26 g) and performed the surgical procedures as described previously. Anesthesia was induced by intraperitoneal (i.p.) injection of xylazine (10 mg/kg body weight; ScanVet, Fredensborg, Denmark) and ketamine (60 mg/kg body weight; MSD Animal Health, København, Denmark), and maintained by supplementary i.p. injections of ketamine (30 mg/kg body weight) every 20–25 min. The trachea was surgically exposed, and a custom-made metal tube inserted into the trachea lumen for mechanical respiration (180–220 μL volume; 190–240 strokes/min) with oxygen-supplemented air (1.5–2 mL/min) using a MiniVent Type 845 ventilator (Harvard Apparatus, Holliston, MA, USA). Catheters were inserted into the femoral vein and the femoral artery. The incisions were closed with surgical staples. After cannulation, the animal was placed in a prone position. The scalp was removed and FeCl3 (0.62 M) administered to clean off the periosteum. The exposed skull was subsequently washed with saline, dried, and attached to a custom-made metal plate using a cyanoacrylate gel (Henkel’s LOCTITE®, Düsseldorf, Germany). The animal head was mounted onto the imaging stage insert and craniotomy performed using a dental drill (7000 rpm; 4 mm lateral and 1 mm posterior to bregma, Ø = 3 mm). The bone flap and dura were carefully removed, and the surface of the brain gently washed with artificial cerebrospinal fluid (120 mM NaCl, 2.8 mM KCl, 1 mM Na2HPO4, 0.876 mM MgCl2, 22 mM NaHCO3, 1.45 mM CaCl2, 2.55 mM glucose, pH 7.4, 37 °C, 5% CO2). We applied 1% type III-A agarose to the brain surface, and a Menzel glass coverslip (4 × 4 mm, 0.08-mm thick; Thermo Fischer Scientific, Bedford, MA, USA) was positioned to seal the major part of the craniotomy, leaving only an opening for the glass microelectrode used in the electrophysiological assessment. The mouse was transferred to the imaging stage. Following the insertion of the glass microelectrode, the anesthesia was switched to α-chloralose administered intravenously at a constant flow of 50 mg/kg body weight/hour. The mouse was left for 25 min for anesthesia equilibration before imaging. During all procedures, the animal was maintained at 37 °C using a YSI-451rectal thermistor probe (E-Z Systems, Palmer, PA, USA) with a TC-1000 Mouse Proportional controlling unit connected to a heating pad (08-13013; CWE Incorporated, Palmer, PA, USA). To ensure optimal animal physiology and level of anesthesia, end-tidal respiratory CO2 was measured using a Capnograph Type 340 (Harvard Apparatus, Holliston, MA, USA), and mean arterial blood pressure was monitored using a BP-1 pressure monitor (World Precision Instruments, Sarasota, FL, USA).
Imaging of BBB permeation: TAMRA-Tat, TAMRA-Tat-NR2B9c, and TAMRA-Tat-N-dimer were administered as 60 µL bolus injections via the catheter inserted into the femoral artery (3 nmol/g body weight). […] The imaging was performed using an SP5 upright laser scanning microscope equipped with a 20 × 1.0 N.A. water-immersion objective (Leica Microsystems, Wetzlar, Germany). Images were obtained in a hyperstack mode, i.e., in a series of Z-stacks in 1-min intervals. Each Z-stack underwent a reduction of dimensionality (maximum signal intensity projection along the Z-axis). TAMRA and FITC were excited with a Millennia Pro MaiTai HP Ti:Sapphire two-photon laser (Spectra Physics, Santa Clara, CA, USA) tuned to 870 nm. The signal was acquired by two multi-alkali NDD photomultipliers after 525–560 and 560–625 nm band pass filters for FITC-dx and TAMRA fluorescence, respectively. Data were exported from LAS AF software (v. 4.4, Leica Microsystems, Wetzlar, Germany) to ImageJ v. 1.48u4 (NIH).

[3] = Tissue distribution; type: in vivo, NMRI mice
Method: Following 1 h of circulation, the mice were deeply anesthetized by i.p. injection of 0.05 mL/10 g body weight Ketaminol/Dexdormitor (2.25 mg ketamine/0.03 mg […] per 10 g body weight in 0.9% NaCl). The chest cage was opened and the mice transcardially perfused with 0.01 M PBS (pH 7.4) prior to isolation of the brain, heart, lungs, spleen, kidney, liver, and 2 cm of the upper part of the intestine. All tissues were immediately put on ice and kept at −80 °C until analysis.
The tissues were homogenized in 1 mL of ice-cold lysis buffer using a 7-mL Dounce tissue grinder set (Merck, St. Louis, MO, USA). Homogenates were left on ice for 10 min prior to centrifugation at 14,000× g and 4 °C for 10 min. Supernatants (100 µL) were transferred to a black clear-bottom 96-well plate for quantification of the TAMRA-peptides using a NovoStar fluorescence plate reader (BMG Labtech, Offenburg, Germany) with excitation and emission set to 542 and 568 nm, respectively. The molar peptide amounts were calculated using standard curves that were freshly prepared in lysates from relevant blank tissue at concentrations ranging from 30 nM to 2 µM.

[4] = 3 nmol/g i.v., 1 h, NMRI mice, comparison among the Tat-conjugates

SMILES	transendothelial permeation of 3-5 kDa FITC-dextran applied with peptide, compared to FITC-dextran alone [1]	BBB permeation: AUC of change in TAMRA fluorescence in the brain parenchyma [2] [F/F0 min]	clearance: AUC of decreased fluorescence in the blood stream [2] [F/F0 min]	TAMRA fluorescence in the kidney [3, 4]	tissue uptake at 1 h ([3]; male, NMRI, mouse, brain, iv, 3 nmol/g body weight, mice, tissue distribution (abstract), read-out: brain accumulation) [%ID/g]	accumulation in the liver [3, 4]	amount in mouse brain homogenate ([3]; 3 nmol peptide/g body weight, tail vein, 1 h circulation, perfused NMRI mice, TAMRA fluorescence in whole tissue homogenate, mean ± SD, N = 4-6)	accumulation in the intestines [3, 4]	TAMRA fluorescence in the brain homogenates (comparison) ([3]; 3 nmol/g i.v., 1 h, NMRI mice, unpaired t-test)
CC[C@H](C)[C@H](NC(=O)CCOCCOCCN(CCOCCOCCC(=O)N[C@H](C(=O)N[C@@H](CCC(=O)O)C(=O)N[C@H](C(=O)N[C@@H](CC(=O)O)C(=O)N[C@H](C(=O)O)C(C)C)[C@@H](C)O)[C@@H](C)CC)C(=O)[C@H](CCCNC(=N)N)NC(=O)[C@H](CCCNC(=N)N)NC(=O)[C@H](CCCNC(=N)N)NC(=O)[C@H](CCC(N)=O)NC(=O)[C@H](CCCNC(=N)N)NC(=O)[C@H](CCCNC(=N)N)NC(=O)[C@H](CCCCN)NC(=O)[C@H](CCCCN)NC(=O)[C@H](CCCNC(=N)N)NC(=O)CNC(=O)[C@H](Cc1ccc(O)cc1)NC(=O)c1ccc2c(c1)C(=O)OC21c2ccc(N(C)C)cc2Oc2cc(N(C)C)ccc21)C(=O)N[C@@H](CCC(=O)O)C(=O)N[C@H](C(=O)N[C@@H](CC(=O)O)C(=O)N[C@H](C(=O)O)C(C)C)[C@@H](C)O [TAMRA-Tat-N-dimer]	did not increase	6.90 ± 3.90	−15.02 ± 0.55	more fluorescence in the kidney than TAMRA-Tat or TAMRA-Tat-NR2B9c	0.25				
CC[C@H](C)[C@H](NC(=O)[C@H](CO)NC(=O)[C@H](CO)NC(=O)[C@H](CC(C)C)NC(=O)[C@H](CCCCN)NC(=O)[C@H](CCCNC(=N)N)NC(=O)[C@H](CCCNC(=N)N)NC(=O)[C@H](CCCNC(=N)N)NC(=O)[C@H](CCC(N)=O)NC(=O)[C@H](CCCNC(=N)N)NC(=O)[C@H](CCCNC(=N)N)NC(=O)[C@H](CCCCN)NC(=O)[C@H](CCCCN)NC(=O)[C@H](CCCNC(=N)N)NC(=O)CNC(=O)[C@H](Cc1ccc(O)cc1)NC(=O)c1ccc2c(c1)C(=O)OC21c2ccc(N(C)C)cc2Oc2cc(N(C)C)ccc21)C(=O)N[C@@H](CCC(=O)O)C(=O)N[C@@H](CO)C(=O)N[C@@H](CC(=O)O)C(=O)N[C@H](C(=O)O)C(C)C [TAMRA-Tat-NR2B9c] (5TAMRA-YGRKKRRQRRRKLSSIESDV-OH)		5.54 ± 2.95	−4.97 ± 1.26			to a greater extent than TAMRA-Tat and TAMRA-Tat-N-dimer			
CN(C)c1ccc2c(c1)Oc1cc(N(C)C)ccc1C21OC(=O)c2cc(C(=O)N[C@@H](Cc3ccc(O)cc3)C(=O)NCC(=O)N[C@@H](CCCNC(=N)N)C(=O)N[C@@H](CCCCN)C(=O)N[C@@H](CCCCN)C(=O)N[C@@H](CCCNC(=N)N)C(=O)N[C@@H](CCCNC(=N)N)C(=O)N[C@@H](CCC(N)=O)C(=O)N[C@@H](CCCNC(=N)N)C(=O)N[C@@H](CCCNC(=N)N)C(=O)N[C@@H](CCCNC(=N)N)C(=O)O)ccc21 [TAMRA-Tat]		32.21 ± 10.17	−17.85 ± 1.71				0.4% ± 0.1%	superior	slightly higher levels
